Values of other authors in US20100239682A1, “COLONIC DELIVERY OF ANTIMICROBIAL AGENTS” (priority 2007, published 2010).

Columns and labels:
[1] = test system: Enterobacteriaceae; conditions: human volunteers, oral, different dosages
[2] = human volunteers, high doses

For colistin [Colimycin], the “effectiveness at achieving selective decontamination” value [1] is listed as “only high dosages of Colimycin were effective” and the “tolerance at the gastric level” value [2] is listed as “very poorly tolerated”.
